Measured values: ChEMBL document CHEMBL5653604, “ZSTK474, a novel phosphatidylinositol 3-kinase inhibitor identified using the JFCR39 drug discovery system” (Acta Pharmacol Sin, 2010)
pIC50: −log10 of the molar value.

What was measured:
[1] = target: Phosphatidylinositol 4,5-bisphosphate 3-kinase catalytic subunit beta isoform (Homo sapiens, UniProt P42338); test: Inhibition of p110 beta (unknown origin)
[2] = target: Phosphatidylinositol 4,5-bisphosphate 3-kinase catalytic subunit gamma isoform (Homo sapiens, UniProt P48736); test: Inhibition of p110 gamma (unknown origin)
[3] = target: T1, Phosphatidylinositol 4,5-bisphosphate 3-kinase catalytic subunit delta isoform (Homo sapiens, UniProt O00329); test: Inhibition of p110 delta (unknown origin)
T1 sequence (O00329 whole entry): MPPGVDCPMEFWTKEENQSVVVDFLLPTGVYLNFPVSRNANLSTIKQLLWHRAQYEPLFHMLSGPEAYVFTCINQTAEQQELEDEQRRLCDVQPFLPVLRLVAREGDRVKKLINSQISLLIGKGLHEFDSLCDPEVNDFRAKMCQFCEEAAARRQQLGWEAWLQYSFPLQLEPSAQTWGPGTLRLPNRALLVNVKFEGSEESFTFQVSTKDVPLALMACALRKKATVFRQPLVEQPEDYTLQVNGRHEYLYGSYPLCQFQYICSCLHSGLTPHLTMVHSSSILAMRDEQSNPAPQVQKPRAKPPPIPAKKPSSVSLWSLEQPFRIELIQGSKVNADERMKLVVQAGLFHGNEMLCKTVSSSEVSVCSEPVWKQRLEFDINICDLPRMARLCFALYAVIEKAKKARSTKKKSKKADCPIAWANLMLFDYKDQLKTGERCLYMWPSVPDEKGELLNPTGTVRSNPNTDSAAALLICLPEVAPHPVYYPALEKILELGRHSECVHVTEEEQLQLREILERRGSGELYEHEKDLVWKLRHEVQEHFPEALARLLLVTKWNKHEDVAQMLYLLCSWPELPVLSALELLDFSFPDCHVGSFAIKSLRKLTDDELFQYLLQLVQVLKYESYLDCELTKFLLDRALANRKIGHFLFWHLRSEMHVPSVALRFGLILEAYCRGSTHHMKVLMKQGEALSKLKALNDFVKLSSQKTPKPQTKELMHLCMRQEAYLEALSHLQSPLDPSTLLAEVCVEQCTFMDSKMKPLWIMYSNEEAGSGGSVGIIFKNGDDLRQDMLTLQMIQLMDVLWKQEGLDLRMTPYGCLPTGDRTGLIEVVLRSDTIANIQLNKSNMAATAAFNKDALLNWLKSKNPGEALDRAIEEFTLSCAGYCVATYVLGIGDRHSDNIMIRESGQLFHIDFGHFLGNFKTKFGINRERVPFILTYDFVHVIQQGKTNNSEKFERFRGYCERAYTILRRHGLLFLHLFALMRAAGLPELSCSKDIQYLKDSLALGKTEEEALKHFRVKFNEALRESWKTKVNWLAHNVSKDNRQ

[4] = target: Phosphatidylinositol 4,5-bisphosphate 3-kinase catalytic subunit alpha isoform (Homo sapiens, UniProt P42336); test: Inhibition of p110 alpha (unknown origin)
RXF 631 = test: Growth inhibition of human RXF 631 cells assessed as reduction in cell viability incubated for 48 hrs by SRB assay; format: functional
SK-OV-3 = test: Growth inhibition of human SK-OV-3 cells assessed as reduction in cell viability incubated for 48 hrs by SRB assay; format: functional
NCI-H460 = test: Growth inhibition of human NCI-H460 cells assessed as reduction in cell viability incubated for 48 hrs by SRB assay; format: functional
OVCAR-8 = test: Growth inhibition of human OVCAR-8 cells assessed as reduction in cell viability incubated for 48 hrs by SRB assay; format: functional

Chain of Phosphatidylinositol 4,5-bisphosphate 3-kinase catalytic subunit gamma isoform (P48736 whole entry, canonical isoform): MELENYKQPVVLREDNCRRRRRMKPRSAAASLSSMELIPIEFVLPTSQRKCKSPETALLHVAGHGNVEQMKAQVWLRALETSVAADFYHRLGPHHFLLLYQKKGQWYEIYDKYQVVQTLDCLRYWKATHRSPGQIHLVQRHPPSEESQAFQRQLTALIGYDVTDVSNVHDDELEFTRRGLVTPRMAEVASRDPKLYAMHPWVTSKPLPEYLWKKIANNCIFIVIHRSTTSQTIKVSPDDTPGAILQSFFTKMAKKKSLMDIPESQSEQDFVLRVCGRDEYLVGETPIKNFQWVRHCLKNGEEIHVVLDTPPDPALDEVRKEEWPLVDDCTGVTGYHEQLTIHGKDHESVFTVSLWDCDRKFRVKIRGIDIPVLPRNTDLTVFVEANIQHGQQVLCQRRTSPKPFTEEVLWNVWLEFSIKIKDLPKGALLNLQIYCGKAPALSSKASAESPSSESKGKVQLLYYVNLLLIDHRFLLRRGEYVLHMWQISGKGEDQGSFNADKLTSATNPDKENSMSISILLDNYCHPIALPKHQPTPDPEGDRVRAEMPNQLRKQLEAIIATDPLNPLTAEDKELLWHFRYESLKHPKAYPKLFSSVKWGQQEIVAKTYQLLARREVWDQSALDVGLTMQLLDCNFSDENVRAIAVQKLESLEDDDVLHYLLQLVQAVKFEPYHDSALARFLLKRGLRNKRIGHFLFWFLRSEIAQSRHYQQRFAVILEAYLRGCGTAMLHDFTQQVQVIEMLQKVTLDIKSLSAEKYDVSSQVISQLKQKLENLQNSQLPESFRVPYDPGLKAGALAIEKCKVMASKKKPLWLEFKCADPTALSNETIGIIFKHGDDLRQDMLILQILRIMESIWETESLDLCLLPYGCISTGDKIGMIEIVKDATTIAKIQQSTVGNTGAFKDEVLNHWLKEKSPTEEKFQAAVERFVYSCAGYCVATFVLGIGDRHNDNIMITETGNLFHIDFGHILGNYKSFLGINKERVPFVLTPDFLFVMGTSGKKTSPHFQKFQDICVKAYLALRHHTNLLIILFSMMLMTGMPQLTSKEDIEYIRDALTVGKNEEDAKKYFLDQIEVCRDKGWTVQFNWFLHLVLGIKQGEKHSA
Chain of Phosphatidylinositol 4,5-bisphosphate 3-kinase catalytic subunit beta isoform (P42338 whole entry, canonical isoform): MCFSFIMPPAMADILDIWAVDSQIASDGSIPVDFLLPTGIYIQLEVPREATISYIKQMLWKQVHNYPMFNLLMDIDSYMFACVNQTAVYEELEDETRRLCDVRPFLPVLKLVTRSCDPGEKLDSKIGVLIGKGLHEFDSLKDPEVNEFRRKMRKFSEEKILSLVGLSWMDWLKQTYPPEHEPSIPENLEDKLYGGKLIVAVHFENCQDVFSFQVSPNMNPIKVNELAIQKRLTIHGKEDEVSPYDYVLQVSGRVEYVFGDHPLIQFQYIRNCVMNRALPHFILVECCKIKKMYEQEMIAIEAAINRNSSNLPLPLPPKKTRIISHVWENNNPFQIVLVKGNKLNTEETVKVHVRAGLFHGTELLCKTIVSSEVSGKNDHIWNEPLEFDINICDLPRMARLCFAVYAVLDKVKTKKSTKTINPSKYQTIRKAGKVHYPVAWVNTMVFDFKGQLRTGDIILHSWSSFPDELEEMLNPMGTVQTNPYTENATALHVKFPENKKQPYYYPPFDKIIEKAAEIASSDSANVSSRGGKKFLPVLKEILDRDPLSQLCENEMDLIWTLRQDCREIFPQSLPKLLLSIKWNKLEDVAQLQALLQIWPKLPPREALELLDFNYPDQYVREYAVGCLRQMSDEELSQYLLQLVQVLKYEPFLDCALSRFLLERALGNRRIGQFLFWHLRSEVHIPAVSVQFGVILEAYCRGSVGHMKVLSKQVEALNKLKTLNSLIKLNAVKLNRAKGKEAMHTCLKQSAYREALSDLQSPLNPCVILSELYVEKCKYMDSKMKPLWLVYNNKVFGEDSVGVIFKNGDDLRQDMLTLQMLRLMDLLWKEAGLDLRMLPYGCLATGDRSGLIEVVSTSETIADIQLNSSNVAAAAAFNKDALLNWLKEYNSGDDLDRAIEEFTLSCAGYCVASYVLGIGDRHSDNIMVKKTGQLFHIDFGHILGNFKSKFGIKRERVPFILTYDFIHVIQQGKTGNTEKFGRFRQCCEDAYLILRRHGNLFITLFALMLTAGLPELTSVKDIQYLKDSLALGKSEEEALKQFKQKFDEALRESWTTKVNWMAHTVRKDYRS
Chain of Phosphatidylinositol 4,5-bisphosphate 3-kinase catalytic subunit alpha isoform (P42336 whole entry, canonical isoform): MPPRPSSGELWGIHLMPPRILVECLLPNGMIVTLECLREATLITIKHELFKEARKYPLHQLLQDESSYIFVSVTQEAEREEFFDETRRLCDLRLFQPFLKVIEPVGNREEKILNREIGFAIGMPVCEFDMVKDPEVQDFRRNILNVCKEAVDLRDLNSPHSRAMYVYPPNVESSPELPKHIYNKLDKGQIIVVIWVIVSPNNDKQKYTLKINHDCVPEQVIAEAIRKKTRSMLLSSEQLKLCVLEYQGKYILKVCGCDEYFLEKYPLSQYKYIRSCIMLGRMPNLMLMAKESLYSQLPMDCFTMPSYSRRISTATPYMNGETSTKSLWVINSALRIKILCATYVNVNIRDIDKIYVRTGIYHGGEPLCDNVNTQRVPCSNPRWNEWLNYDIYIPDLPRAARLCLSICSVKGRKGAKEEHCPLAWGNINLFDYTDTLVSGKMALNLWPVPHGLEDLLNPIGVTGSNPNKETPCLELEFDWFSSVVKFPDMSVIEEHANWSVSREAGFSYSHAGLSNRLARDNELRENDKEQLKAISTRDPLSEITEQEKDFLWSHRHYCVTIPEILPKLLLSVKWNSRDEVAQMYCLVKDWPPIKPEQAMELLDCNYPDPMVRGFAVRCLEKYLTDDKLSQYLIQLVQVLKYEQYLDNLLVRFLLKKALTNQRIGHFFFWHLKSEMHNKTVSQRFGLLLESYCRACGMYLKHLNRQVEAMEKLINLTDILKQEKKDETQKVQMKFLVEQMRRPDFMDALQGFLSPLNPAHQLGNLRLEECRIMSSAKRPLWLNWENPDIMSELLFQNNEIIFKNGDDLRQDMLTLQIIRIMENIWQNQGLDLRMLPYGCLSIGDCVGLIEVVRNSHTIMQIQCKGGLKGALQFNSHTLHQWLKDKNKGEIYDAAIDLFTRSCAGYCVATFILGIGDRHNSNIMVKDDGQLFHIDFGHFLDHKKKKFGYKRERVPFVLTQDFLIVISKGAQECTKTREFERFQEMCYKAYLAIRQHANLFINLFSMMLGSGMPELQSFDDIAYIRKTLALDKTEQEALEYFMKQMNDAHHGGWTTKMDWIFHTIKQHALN

Work on `COc1cc(Nc2nc3ccccc3nc2NS(=O)(=O)c2ccc(NC(=O)c3ccc(C)c(OC)c3)cc2)cc(OC)c1` yielded a pIC50 [1] of 6.95.
Work on `COc1ncc(-c2ccc3nccc(-c4ccnnc4)c3c2)cc1NS(=O)(=O)c1ccc(F)cc1F` [OMIPALISIB] yielded a pIC50 [2] of 9.00.
In the case of `COc1ccc(Cl)c(Nc2nc3ccccc3nc2NS(=O)(=O)c2cccc(NC(=O)C(C)(C)N)c2)c1` [PILARALISIB], the pIC50 [3] was 7.44 and the pIC50 [2] was 7.64.
For `C=CCN(/C=C1/C(=O)O[C@H](COC)[C@@]2(C)C1=C(O)C(=O)C1=C2[C@H](OC(C)=O)C[C@]2(C)C(=O)CC[C@@H]12)CC=C` [SONOLISIB], the pIC50 [4] was 8.22, the pIC50 [1] was under 6.52 and the pIC50 [3] was 8.52.
In the case of `FC(F)c1nc2ccccc2n1-c1nc(N2CCOCC2)nc(N2CCOCC2)n1` [ZSTK-474], the GI50 (RXF 631) was 316 nM, the GI50 (SK-OV-3) was 398 nM and the GI50 (NCI-H460) was 372 nM. The GI50 (OVCAR-8) was 1260 nM.
